Read-outs that look alike come from different tables or passages of the source.
Columns and labels:
[1] = biological target: T1, human Gcg receptor (hGcgR) (Homo sapiens, UniProt P47871); assay: [125I]-Glucagon binding, SPA with membranes of HEK293 cells expressing hGcgR
T1 construct: expressed in transfected cells; crude membranes

[2] = biological target: T2, human GLP-1 receptor (hGLP-1R) (Homo sapiens, UniProt P43220); assay: [125I]-GLP-1 binding, SPA with membranes of HEK293 cells expressing hGLP-1R
T2 construct: expressed in transfected cells; crude membranes
T2 sequence (P43220 24-463): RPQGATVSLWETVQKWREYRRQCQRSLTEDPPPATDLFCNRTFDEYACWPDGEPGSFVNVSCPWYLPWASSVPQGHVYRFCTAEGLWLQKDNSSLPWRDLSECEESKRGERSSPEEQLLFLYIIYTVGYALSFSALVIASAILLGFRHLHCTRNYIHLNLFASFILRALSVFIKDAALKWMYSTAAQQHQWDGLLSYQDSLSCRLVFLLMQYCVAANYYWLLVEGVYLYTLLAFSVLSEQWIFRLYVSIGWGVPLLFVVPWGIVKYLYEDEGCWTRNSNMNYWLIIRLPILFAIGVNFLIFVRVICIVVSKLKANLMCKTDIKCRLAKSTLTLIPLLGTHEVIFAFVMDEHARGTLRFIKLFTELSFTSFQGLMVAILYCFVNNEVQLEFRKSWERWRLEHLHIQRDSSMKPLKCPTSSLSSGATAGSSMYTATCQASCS

[3] = biological target: T3, hGCGR (Homo sapiens, UniProt P47871); assay: Functional cAMP formation (HTRF) in HEK-293 clonal cells expressing hGCGR, 0.1% bovine casein, without or with 1.0% human serum albumin; format: cell-based
T3 construct: expressed in transfected cells
T3 sequence (P47871 26-477): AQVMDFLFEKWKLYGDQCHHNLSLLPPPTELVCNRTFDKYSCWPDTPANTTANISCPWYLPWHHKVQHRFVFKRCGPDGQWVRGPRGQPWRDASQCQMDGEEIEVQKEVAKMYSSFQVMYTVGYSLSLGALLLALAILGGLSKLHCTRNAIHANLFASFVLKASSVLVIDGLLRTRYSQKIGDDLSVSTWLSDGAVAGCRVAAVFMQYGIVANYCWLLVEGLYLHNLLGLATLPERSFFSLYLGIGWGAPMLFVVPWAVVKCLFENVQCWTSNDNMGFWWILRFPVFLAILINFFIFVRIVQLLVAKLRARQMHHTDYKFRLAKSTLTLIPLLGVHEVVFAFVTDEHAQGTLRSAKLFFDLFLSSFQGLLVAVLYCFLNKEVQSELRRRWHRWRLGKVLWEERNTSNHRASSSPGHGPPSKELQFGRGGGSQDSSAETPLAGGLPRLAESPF
Summary of the method: (§1)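 Cells were stimulated with peptide for 30 min at 37° C, then lysed in buffer carrying cAMP-d2 and anti-cAMP Eu3+-cryptate for a competitive HTRF read after at least 60 min at room temperature. The 665/620 nm ratio was converted to nM cAMP against a standard curve.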

[4] = biological target: hGLP-1R (Homo sapiens, UniProt P43220); assay: Functional cAMP formation (HTRF) in HEK-293 clonal cells expressing hGLP-1R, 0.1% bovine casein, without or with 1.0% human serum albumin; format: cell-based; parameters: expressed in transfected cells; conditions: for EC50: cAMP, 0.1% bovine casein (no human serum albumin), geometric mean
Chain of hGLP-1R (P43220 24-463): as the sequence (P43220 24-463) above
Summary of the method: as §1

[5] = human GcgR, geometric mean (SEM, n), read-out: Binding Affinity Ki, nM (SEM, n) hGCGR
[6] = human GLP-1R, geometric mean (SEM, n), read-out: Binding Affinity Ki, nM (SEM, n) hGLP-1R
[7] = 0.1% bovine casein and 1.0% human serum albumin, 37° C., geometric mean, read-out: hGCGR EC50, nM (SEM, n)
[8] = cAMP, incubated at 37° C., 0.1% bovine casein (no human serum albumin), geometric mean, read-out: hGCGR EC50, nM (SEM, n)
[9] = HEK293, 0.1% bovine casein and 1.0% human serum albumin, 37° C., percent of maximal response to GLP-1(7-36)NH2, read-out: hGLP-1R Emax, % ± SEM
[10] = HEK293, percent of maximal response to GLP-1(7-36)NH2, 37° C., 0.1% bovine casein, arithmetic mean, read-out: hGLP-1R Emax, % ± SEM
[11] = incubated at 37° C., read-out: hGLP-1R EC50, nM (SEM, n)

T1 sequence (P47871 26-477): as the sequence (P47871 26-477) above

Row | Compound | Ki [1, 5] | Ki [2, 6] | EC50 [3, 7] | EC50 [3, 8] | Emax [4, 9] | Emax [4, 10] | EC50 [4, 11] | Ki [1] | Ki [2] | EC50 ([3]; hGCGR EC50, nM (SEM, n), cAMP, 37° C., 0.1% bovine casein (no human serum albumin), geometric mean) | EC50 ([3]; hGCGR EC50, nM (SEM, n), cAMP, 37° C., 0.1% bovine casein and 1.0% human serum albumin, geometric mean (SEM, n)) | Emax ([4]; HEK293, read-out: hGLP-1R Emax, % ± SEM, cAMP, 37° C., 0.1% bovine casein and 1.0% human serum albumin, percent of maximal response to GLP-1(7-36)NH2) | Emax ([4]; HEK293, read-out: hGLP-1R Emax, % ± SEM, cAMP, 37° C., 0.1% bovine casein, percent of maximal response to GLP-1(7-36)NH2, arithmetic mean) | EC50 ([4]; hGLP-1R EC50, nM (SEM, n), 37° C.)
1 | CC[C@H](C)[C@H](NC(=O)[C@H](CC(C)C)NC(=O)[C@](C)(Cc1ccc(O)cc1)NC(=O)[C@@H](CCC(=O)O)NC(=O)[C@@H](NC(=O)[C@H](Cc1ccccc1)NC(=O)[C@H](CCC(=O)O)NC(=O)C(C)(C)NC(=O)[C@H](CCC(N)=O)NC(=O)[C@H](C)NC(=O)[C@H](CCCCNC(=O)COCCOCCNC(=O)COCCOCCNC(=O)CC[C@H](NC(=O)CCCCCCCCCCCCC(=O)O)C(=O)O)NC(=O)[C@H](CCCN)NC(=O)[C@H](CC(=O)O)NC(=O)[C@H](CC(C)C)NC(=O)[C@](C)(CC(C)C)NC(=O)[C@@H](NC(=O)C(C)(C)NC(=O)[C@@H](NC(=O)[C@H](CC(=O)O)NC(=O)[C@H](CO)NC(=O)[C@@H](NC(=O)[C@](C)(Cc1ccccc1F)NC(=O)[C@@H](NC(=O)CNC(=O)[C@H](CCC(=O)O)NC(=O)C(C)(C)NC(=O)[C@@H](N)Cc1ccc(O)cc1)[C@@H](C)O)[C@@H](C)O)C(C)C)[C@@H](C)CC)[C@@H](C)CC)C(=O)N[C@@H](CCC(=O)O)C(=O)NCC(=O)NCC(=O)N[C@@H](CCCCNC(=O)COCCOCCNC(=O)COCCOCCNC(=O)CC[C@H](NC(=O)CCCCCCCCCCCCC(=O)O)C(=O)O)C(=O)N[C@@H](CO)C(=O)N[C@@H](CO)C(=O)NCC(=O)N[C@@H](C)C(=O)N1CCC[C@H]1C(=O)N1CCC[C@H]1C(=O)N1CCC[C@H]1C(=O)N[C@@H](CO)C(N)=O [Example 91] | > 955 nM | 1.26 nM | > 9950 nM | > 9950 nM | 89.8% | 94 ± 5.44% | 0.153 nM | – | – | – | – | – | – | –
2 | CC[C@H](C)[C@H](NC(=O)[C@H](CC(C)C)NC(=O)[C@](C)(Cc1ccc(O)cc1)NC(=O)[C@H](CCCCNC(=O)CC[C@H](NC(=O)COCCOCCNC(=O)COCCOCCNC(=O)CC[C@H](NC(=O)CCCCCCCCCOc1ccc(C(=O)O)cc1)C(=O)O)C(=O)O)NC(=O)[C@@H](NC(=O)[C@H](Cc1ccccc1)NC(=O)[C@H](CCCN)NC(=O)C(C)(C)NC(=O)[C@H](CCC(N)=O)NC(=O)[C@H](C)NC(=O)[C@H](CCC(N)=O)NC(=O)[C@H](CCCN)NC(=O)[C@H](CC(=O)O)NC(=O)[C@H](CC(C)C)NC(=O)[C@](C)(CC(C)C)NC(=O)[C@@H](NC(=O)C(C)(C)NC(=O)[C@H](Cc1ccncc1)NC(=O)[C@H](CC(=O)O)NC(=O)[C@H](CO)NC(=O)[C@@H](NC(=O)[C@](C)(Cc1ccccc1F)NC(=O)[C@@H](NC(=O)CNC(=O)[C@H](CCC(=O)O)NC(=O)C(C)(C)NC(=O)[C@@H](N)Cc1ccc(O)cc1)[C@@H](C)O)[C@@H](C)O)[C@@H](C)CC)[C@@H](C)CC)C(=O)N[C@@H](CCCCNC(=O)CC[C@H](NC(=O)COCCOCCNC(=O)COCCOCCNC(=O)CC[C@H](NC(=O)CCCCCCCCCOc1ccc(C(=O)O)cc1)C(=O)O)C(=O)O)C(=O)NCC(=O)NCC(=O)N1CCC[C@H]1C(=O)N[C@@H](CO)C(=O)N[C@@H](CO)C(=O)NCC(=O)N[C@@H](C)C(=O)N1CCC[C@H]1C(=O)N1CCC[C@H]1C(=O)N1CCC[C@H]1C(=O)N[C@@H](CO)C(N)=O [Example 483] | – | – | – | – | – | – | – | 151 nM | 0.263 nM | > 9950 nM | > 9950 nM | 113% | 118% | 0.169 nM
3 | CC[C@H](C)[C@H](NC(=O)[C@H](CC(C)C)NC(=O)[C@](C)(Cc1ccc(O)cc1)NC(=O)[C@@H](CCC(=O)O)NC(=O)[C@@H](NC(=O)[C@H](Cc1ccccc1)NC(=O)[C@H](CCC(=O)O)NC(=O)C(C)(C)NC(=O)[C@H](CCC(N)=O)NC(=O)[C@H](C)NC(=O)[C@H](CCCCNC(=O)COCCOCCNC(=O)COCCOCCNC(=O)CC[C@H](NC(=O)CCCCCCCCCCCCC(=O)O)C(=O)O)NC(=O)[C@H](CCCN)NC(=O)[C@H](CC(=O)O)NC(=O)[C@H](CC(C)C)NC(=O)[C@](C)(CC(C)C)NC(=O)[C@@H](NC(=O)[C@](C)(CO)NC(=O)[C@@H](NC(=O)[C@H](CC(=O)O)NC(=O)[C@H](CO)NC(=O)[C@@H](NC(=O)[C@](C)(Cc1ccccc1F)NC(=O)[C@@H](NC(=O)CNC(=O)[C@H](CCC(=O)O)NC(=O)C(C)(C)NC(=O)[C@@H](N)Cc1ccc(O)cc1)[C@@H](C)O)[C@@H](C)O)C(C)C)[C@@H](C)CC)[C@@H](C)CC)C(=O)N[C@@H](CCC(=O)O)C(=O)NCC(=O)NCC(=O)N[C@@H](CCCCNC(=O)COCCOCCNC(=O)COCCOCCNC(=O)CC[C@H](NC(=O)CCCCCCCCCCCCC(=O)O)C(=O)O)C(=O)N[C@@H](CO)C(=O)N[C@@H](CO)C(=O)NCC(=O)N[C@@H](C)C(=O)N1CCC[C@H]1C(=O)N1CCC[C@H]1C(=O)N1CCC[C@H]1C(=O)N[C@@H](CO)C(N)=O [Example 212] | > 955 nM | 1.17 nM | > 9950 nM | > 9950 nM | 91% | 94.7% | 0.265 nM | – | – | – | – | – | – | –
